Measurements as given in patent publication US9624241B2 (Incyte Corporation, priority 2013, dated 2017).
Like-named read-outs stand apart in the source and are kept apart here.

Legend:
BET proteins = test: BET protein inhibition, assay not specified; conditions: comparison of chiral HPLC peaks
BRD4-BD1 = BRD4-BD1 (Homo sapiens (Human), UniProt O60885); test: BRD4 AlphaScreen Assay (Example A1), BRD4-BD1; type: binding; conditions: Assay A1, 3.8 nM BRD4-BD1, 50 nM H4Ac4 peptide; read-out: BRD4 BD-1 enzyme IC50
Experimental: (§1) BRD4-BD1 and BRD4-BD2 assays were conducted in white 384-well polystyrene plate in a final volume of 20 μL for BD1 and 40 μL for BD2. Inhibitors were first serially diluted in DMSO and added to the plate wells before the addition of other reaction components. […] After plate sealing, the plate was incubated in the dark at room temperature for 75 min. before reading on a PHERAstar FS plate reader (BMG Labtech). IC50 determination was performed by fitting the curve of percent control activity versus the log of the inhibitor concentration using the GraphPad Prism 5.0 software.

BRD4-BD2 = BRD4-BD2 (Homo sapiens (Human), UniProt O60885); test: BRD4 AlphaScreen Assay (Example A1), BRD4-BD2; type: binding; conditions: Assay A1, 20 nM BRD4-BD2, 50 nM H4Ac4 peptide; read-out: BRD4 BD-2 enzyme IC50
Experimental: as §1

KMS.12.BM cells = test: KMS.12.BM Cell Viability Assay (Example B1); type: cell-based, human; conditions: 3 days, Cell Titer-GLO, read-out: KMS cellular IC50
Experimental: KMS.12.BM cell line (human myeloma) was purchased from JCRB (Osaka, Japan) and maintained in RPMI with 10% FBS culture medium. To measure the cytotoxic activity of the compounds through ATP quantitation, the KMS.12.BM cells are plated in the RPMI culture medium at 5000 cells/well/per 100 μL into a 96-well polystyrene clear black tissue culture plate (Greiner-bio-one through VWR, NJ), in the presence or absence of a concentration range of test compounds. After 3 days, […] Cell Titer-GLO Luminescent (Promega, Madison, Wis.) cell culture agent is added to each well for 10 min. at room temperature to stabilize the luminescent signal. This determines the number of viable cells in culture based on quantitation of the ATP present, which signals the presence of metabolically active cells.

Structure (SMILES) | IC50 (BRD4-BD1) [nM] | IC50 (BRD4-BD2) [nM] | relative activity of separated enantiomers (BET proteins) | IC50 (KMS.12.BM cells; Homo sapiens, KMS-12-BM, 72 h) [nM] | IC50 (KMS.12.BM cells) [nM]
Cc1noc(C)c1-c1ccc2[nH]c(=O)n3c2c1OCC3c1ccccc1 (single isomer, unassigned) [Example 1B, 7-(3,5-Dimethylisoxazol-4-yl)-4-phenyl-4,5-dihydroimidazo[1,5,4-de][1,4]benzoxazin-2(1H)-one] |  |  | less active |  | 
Cc1noc(C)c1-c1ccc2nc(N3CC(O)C3)n3c2c1OCC3c1ccccc1 (stereo not shown) [Example 59, 1-[7-(3,5-Dimethylisoxazol-4-yl)-4-phenyl-4,5-dihydroimidazo[1,5,4-de][1,4]benzoxazin-2-yl]azetidin-3-ol] | < 100 | < 100 |  |  | 
CNc1nc2ccc(-c3c(C)noc3C)c3c2n1C(c1ccccc1)CO3 (stereo not shown) [Example 26, 7-(3,5-Dimethylisoxazol-4-yl)-N-methyl-4-phenyl-4,5-dihydroimidazo[1,5,4-de][1,4]benzoxazin-2-amine] | < 100 | < 100 |  |  | 
COc1ccccc1C1COc2c(-c3c(C)noc3C)ccc3[nH]c(=O)n1c23 (stereo not shown) [Example 7, 7-(3,5-Dimethylisoxazol-4-yl)-4-(2-methoxyphenyl)-4,5-dihydroimidazo[1,5,4-de][1,4]benzoxazin-2(1H)-one] | < 100 | < 100 |  |  | 
CCNC(=O)COc1ccccc1C1COc2c(-c3c(C)noc3C)ccc3[nH]c(=O)n1c23 (stereo not shown) [Example 22, 2-{2-[7-(3,5-Dimethylisoxazol-4-yl)-2-oxo-1,2,4,5-tetrahydroimidazo[1,5,4-de][1,4]benzoxazin-4-yl]phenoxy}-N-ethylacetamide] | < 100 | < 100 |  |  | 
Cc1noc(C)c1-c1ccc2[nH]c(=O)n3c2c1OCC3c1ccc(F)cc1 (stereo not shown) [Example 49, 7-(3,5-Dimethylisoxazol-4-yl)-4-(4-fluorophenyl)-4,5-dihydroimidazo[1,5,4-de][1,4]benzoxazin-2(1H)-one] | < 100 | < 100 |  |  | 
Cc1noc(C)c1-c1ccc2nc(N3CCN(C(=O)OC(C)(C)C)CC3)n3c2c1OCC3c1ccccc1 (stereo not shown) [Example 60] | < 100 | < 100 |  |  | 
Cc1noc(C)c1-c1ccc2[nH]c(=O)n3c2c1OCC3c1ccccn1 (racemic) [Example 13, 7-(3,5-Dimethylisoxazol-4-yl)-4-pyridin-2-yl-4,5-dihydroimidazo[1,5,4-de][1,4]benzoxazin-2(1H)-one] | < 100 | < 100 |  | < 1000 | 
Cc1cc(-c2ccnn2C)c2c3c1[nH]c(=O)n3C(c1ccccc1)CO2 (stereo not shown) [Example 37, 9-Methyl-7-(1-methyl-1H-pyrazol-5-yl)-4-phenyl-4,5-dihydroimidazo[1,5,4-de][1,4]benzoxazin-2(1H)-one] | 100 to 1000 | < 100 |  |  | 
Cc1noc(C)c1-c1ccc2nc(N3CC[C@@H](O)C3)n3c2c1OCC3c1cccnc1 (single isomer, unassigned) [Example 159C] |  |  |  |  | 1000 to 10000
Cc1noc(C)c1-c1ccc2[nH]c(=O)n3c2c1OCC3c1ccc(C#N)cc1 (stereo not shown) [Example 4, 4-[7-(3,5-Dimethylisoxazol-4-yl)-2-oxo-1,2,4,5-tetrahydroimidazo[1,5,4-de][1,4]benzoxazin-4-yl]benzonitrile] | < 100 | < 100 |  |  | 
Cc1noc(C)c1-c1ccc2nc(NC(C)CO)n3c2c1OCC3c1ccccc1 (single isomer, unassigned) [Example 30, 2-{[7-(3,5-Dimethylisoxazol-4-yl)-4-phenyl-4,5-dihydroimidazo[1,5,4-de][1,4]benzoxazin-2-yl]amino}propan-1-ol] | < 100 | < 100 |  |  | 
Cc1noc(C)c1-c1ccc2[nH]c(=O)n3c2c1OCC3c1cccnc1 (stereo not shown) [Example 5, 7-(3,5-Dimethylisoxazol-4-yl)-4-pyridin-3-yl-4,5-dihydroimidazo[1,5,4-de][1,4]benzoxazin-2(1H)-one] | < 100 | < 100 |  |  | 
Cc1noc(C)c1-c1ccc2nc(N3CCC(O)CC3)n3c2c1OCC3c1ccccc1 (stereo not shown) [Example 57, 1-[7-(3,5-Dimethylisoxazol-4-yl)-4-phenyl-4,5-dihydroimidazo[1,5,4-de][1,4]benzoxazin-2-yl]piperidin-4-ol] | < 100 | < 100 |  |  | 
Cc1noc(C)c1-c1ccc2nc(C)n3c2c1OCC3c1ccccc1 (stereo not shown) [Example 9, 7-(3,5-Dimethylisoxazol-4-yl)-2-methyl-4-phenyl-4,5-dihydroimidazo[1,5,4-de][1,4]benzoxazine] | < 100 | < 100 |  |  | 
Cc1noc(C)c1-c1ccc2nc(NC(C)(C)CO)n3c2c1OCC3c1ccccc1 (stereo not shown) [Example 33, 2-{[7-(3,5-Dimethylisoxazol-4-yl)-4-phenyl-4,5-dihydroimidazo[1,5,4-de][1,4]benzoxazin-2-yl]amino}-2-methylpropan-1-ol] | 1000 to 10000 | 100 to 1000 |  |  | 
Cc1noc(C)c1-c1ccc2[nH]c(=O)n3c2c1OCC3C1CCCO1 (single isomer, unassigned) [Example 18B, 7-(3,5-Dimethylisoxazol-4-yl)-4-(tetrahydrofuran-2-yl)-4,5-dihydroimidazo[1,5,4-de][1,4]benzoxazin-2(1H)-one] | 100 to 1000 | < 100 |  |  | 
Cc1noc(C)c1-c1ccc2[nH]c(=O)n3c2c1OCC3c1ccccc1OCC(=O)N(C)C (stereo not shown) [Example 51, 2-{2-[7-(3,5-Dimethylisoxazol-4-yl)-2-oxo-1,2,4,5-tetrahydroimidazo[1,5,4-de][1,4]benzoxazin-4-yl]phenoxy}-N,N-dimethylacetamide] | < 100 | < 100 |  |  | 
Cc1noc(C)c1-c1ccc2c3c1OCC(c1ccccc1)n3c(=O)n2CCN1CCOCC1 (stereo not shown) [Example 10, 7-(3,5-Dimethylisoxazol-4-yl)-1-(2-morpholin-4-ylethyl)-4-phenyl-4,5-dihydroimidazo[1,5,4-de][1,4]benzoxazin-2(1H)-one] | 100 to 1000 | < 100 |  |  | 
Cc1noc(C)c1-c1ccc2nc(NC(C)C)n3c2c1OCC3c1ccccc1 (stereo not shown) [Example 25, 7-(3,5-Dimethylisoxazol-4-yl)-N-isopropyl-4-phenyl-4,5-dihydroimidazo[1,5,4-de][1,4]benzoxazin-2-amine] | < 100 | < 100 |  |  | 

Continued, in another order:

IC50 (BRD4-BD1) [nM] | IC50 (BRD4-BD2) [nM] | Structure (SMILES) | relative activity of separated enantiomers (BET proteins) | IC50 (KMS.12.BM cells; Homo sapiens, KMS-12-BM, 72 h) [nM] | IC50 (KMS.12.BM cells) [nM]
< 100 | < 100 | Cc1noc(C)c1-c1ccc2[nH]c(=O)n3c2c1OCC3c1ccccn1 (single isomer, unassigned) [Example 15, 7-(3,5-Dimethylisoxazol-4-yl)-4-pyridin-2-yl-4,5-dihydroimidazo[1,5,4-de][1,4]benzoxazin-2(1H)-one] |  | < 1000 | 
< 100 | < 100 | Cc1noc(C)c1-c1ccc2nc(NCCO)n3c2c1OCC3c1ccccc1 (stereo not shown) [Example 29, 2-{[7-(3,5-Dimethylisoxazol-4-yl)-4-phenyl-4,5-dihydroimidazo[1,5,4-de][1,4]benzoxazin-2-yl]amino}ethanol] |  |  | 
< 100 | < 100 | Cc1noc(C)c1-c1ccc2[nH]c(=O)n3c2c1OCC3C1CCCCC1 (stereo not shown) [Example 17, 4-Cyclohexyl-7-(3,5-dimethylisoxazol-4-yl)-4,5-dihydroimidazo[1,5,4-de][1,4]benzoxazin-2(1H)-one] |  |  | 
< 100 | < 100 | Cc1noc(C)c1-c1ccc2nc(NCC(C)O)n3c2c1OCC3c1ccccc1 (stereo not shown) [Example 32, 1-{[7-(3,5-Dimethylisoxazol-4-yl)-4-phenyl-4,5-dihydroimidazo[1,5,4-de][1,4]benzoxazin-2-yl]amino}propan-2-ol] |  |  | 
< 100 | < 100 | Cc1noc(C)c1-c1ccc2[nH]c(=O)n3c2c1OCC3c1nccs1 (stereo not shown) [Example 21, 7-(3,5-Dimethylisoxazol-4-yl)-4-(1,3-thiazol-2-yl)-4,5-dihydroimidazo[1,5,4-de][1,4]benzoxazin-2(1H)-one] |  |  | 
100 to 1000 | < 100 | Cn1nccc1-c1ccc2[nH]c(=O)n3c2c1OCC3c1ccccc1 (stereo not shown) [Example 35, 7-(1-Methyl-1H-pyrazol-5-yl)-4-phenyl-4,5-dihydroimidazo[1,5,4-de][1,4]benzoxazin-2(1H)-one] |  |  | 
< 100 | < 100 | Cc1noc(C)c1-c1ccc2[nH]c(=O)n3c2c1OCC3c1ccccc1OCC(=O)NCCO (stereo not shown) [Example 50, 2-{2-[7-(3,5-Dimethylisoxazol-4-yl)-2-oxo-1,2,4,5-tetrahydroimidazo[1,5,4-de][1,4]benzoxazin-4-yl]phenoxy}-N-(2-hydroxyethyl)acetamide] |  |  | 
< 100 | < 100 | COc1cccc(C2COc3c(-c4c(C)noc4C)ccc4[nH]c(=O)n2c34)c1 (stereo not shown) [Example 6, 7-(3,5-Dimethylisoxazol-4-yl)-4-(3-methoxyphenyl)-4,5-dihydroimidazo[1,5,4-de][1,4]benzoxazin-2(1H)-one] |  |  | 
< 100 | < 100 | Cc1noc(C)c1-c1ccc2nc(N(C)CCO)n3c2c1OCC3c1ccccc1 (stereo not shown) [Example 34, 2-[[7-(3,5-Dimethylisoxazol-4-yl)-4-phenyl-4,5-dihydroimidazo[1,5,4-de][1,4]benzoxazin-2-yl](methyl)amino]ethanol] |  |  | 
